In patent US11439641B2, “Pyrimidine JAK inhibitors for the treatment of skin diseases” (THERAVANCE BIOPHARMA R&D IP, LLC, priority 2019, dated 2022):

Columns and labels:
JAK1 = JAK1 (Homo sapiens (Human), UniProt P23458); assay: Biochemical JAK and Tyk2 Kinase Assays (LanthaScreen), JAK1; conditions: 25 μM ATP (Km); pIC50 converted to pKi by Cheng-Prusoff
Protocol: (§1) Assay 1: Biochemical JAK and Tyk2 Kinase Assays
(§2) A panel of four LanthaScreen JAK biochemical assays (JAK1, 2, 3 and Tyk2) were carried in a common kinase reaction buffer (50 mM HEPES, pH 7.5, 0.01% Brij-35, 10 mM MgCl2, and 1 mM EGTA). Recombinant GST-tagged JAK enzymes and a GFP-tagged STAT1 peptide substrate were obtained from Life Technologies.
(§3) Serially or discretely diluted compounds were pre-incubated with each of the four JAK enzymes and the substrate in white 384-well microplates (Corning) at ambient temperature for 1 h. ATP was subsequently added to initiate the kinase reactions in 10 μL total volume, with 1% DMSO. The final enzyme concentrations for JAK1, 2, 3 and Tyk2 are 4.2 nM, 0.1 nM, 1 nM, and 0.25 nM respectively; the corresponding Km ATP concentrations used are 25 μM, 3 μM, 1.6 μM, and 10 μM; while the substrate concentration is 200 nM for all four assays. Kinase reactions were allowed to proceed for 1 hour at ambient temperature before a 10 μL preparation of EDTA (10 mM final concentration) and Tb-anti-pSTAT1 (pTyr701) antibody (Life Technologies, 2 nM final concentration) in TR-FRET dilution buffer (Life Technologies) was added. The plates were allowed to incubate at ambient temperature for 1 h before being read on the EnVision reader (Perkin Elmer). Emission ratio signals (520 nm/495 nm) were recorded and utilized to calculate the percent inhibition values based on DMSO and background controls.
(§4) For dose-response analysis, percent inhibition data were plotted vs. compound concentrations, and IC50 values were determined from a 4-parameter robust fit model with the Prism software (GraphPad Software). Results were expressed as pIC50 (negative logarithm of IC50) and subsequently converted to pKi (negative logarithm of dissociation constant, Ki) using the Cheng-Prusoff equation.

JAK3 = JAK3 (Homo sapiens (Human), UniProt P52333); assay: Biochemical JAK and Tyk2 Kinase Assays (LanthaScreen), JAK3; conditions: 1.6 μM ATP (Km); pIC50 converted to pKi by Cheng-Prusoff
Chain of JAK3 (P52333 whole entry): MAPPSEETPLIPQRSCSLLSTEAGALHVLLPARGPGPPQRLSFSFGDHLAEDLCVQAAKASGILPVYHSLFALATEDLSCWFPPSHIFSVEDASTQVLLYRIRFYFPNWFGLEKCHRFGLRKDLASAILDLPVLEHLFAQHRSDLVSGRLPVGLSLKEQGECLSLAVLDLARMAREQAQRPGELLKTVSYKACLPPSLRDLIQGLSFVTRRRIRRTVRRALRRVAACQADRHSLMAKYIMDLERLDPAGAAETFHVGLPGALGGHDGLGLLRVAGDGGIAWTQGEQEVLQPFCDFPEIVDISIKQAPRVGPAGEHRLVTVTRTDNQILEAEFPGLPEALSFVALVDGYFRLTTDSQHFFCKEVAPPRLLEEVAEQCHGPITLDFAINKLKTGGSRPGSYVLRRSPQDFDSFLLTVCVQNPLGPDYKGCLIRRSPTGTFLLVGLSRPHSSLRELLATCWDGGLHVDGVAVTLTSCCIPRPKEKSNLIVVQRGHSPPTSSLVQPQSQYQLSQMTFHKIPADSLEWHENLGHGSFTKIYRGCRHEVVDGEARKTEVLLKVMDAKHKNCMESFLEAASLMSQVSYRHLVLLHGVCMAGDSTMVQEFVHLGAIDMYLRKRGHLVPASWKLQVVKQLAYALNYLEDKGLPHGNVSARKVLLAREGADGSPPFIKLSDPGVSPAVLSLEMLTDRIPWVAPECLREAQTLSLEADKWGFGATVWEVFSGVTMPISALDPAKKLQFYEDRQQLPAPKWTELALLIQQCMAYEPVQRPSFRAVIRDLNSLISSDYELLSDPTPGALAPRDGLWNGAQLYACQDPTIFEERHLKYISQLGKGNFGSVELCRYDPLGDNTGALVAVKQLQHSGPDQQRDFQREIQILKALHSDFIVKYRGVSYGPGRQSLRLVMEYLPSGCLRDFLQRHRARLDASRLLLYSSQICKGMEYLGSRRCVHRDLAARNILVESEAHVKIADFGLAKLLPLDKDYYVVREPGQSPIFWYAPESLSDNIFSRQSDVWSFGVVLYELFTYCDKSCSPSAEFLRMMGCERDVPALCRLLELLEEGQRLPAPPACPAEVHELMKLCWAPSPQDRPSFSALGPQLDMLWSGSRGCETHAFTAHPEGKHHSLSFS
Protocol: as §1, §2, §3, §4

Aqueous Solubility Assay = conditions: PBS buffer pH 7.4; maximum upper limit 1,000 μM
Protocol: Assay 5: Aqueous Solubility Assay
The purpose of this assay was to quantify the solubility of test compounds in pH 4 and pH 7.4 PBS buffers. The assay required 40 μL of 10 mM DMSO test compound solution per desired buffer in addition to 20 μL required to make a test standard. For example, to test a compound in both buffers, 100 μL (2*40 μL+20 μL) of 10 mM DMSO compound stock solution was required.
The standard was created by diluting 20 μL of 10 mM DMSO compound stock solution into 180 μL of methanol and was shaken for five minutes to ensure solution uniformity. […] This 1,000 μM solution was run on an Agilent 1260 LC-MS system by injecting 2 μL in order to obtain the peak area. For the test solutions, 40 μL of 10 mM DMSO compound stock solution, per PBS buffer condition, were dried down into a powder overnight. Once in powder form, 400 μL of the desired PBS buffer was added to the powder and allowed to shake vigorously for four hours. The maximum theoretical concentration for this sample solution was 1,000 μM. After four hours of shaking, the samples were centrifuged for 10 minutes at 3,000 RPM before injecting 2 μL on the same Agilent 1260 LC-MS system to obtain the peak area.
In Table 6 below, A represents a value above 500, B represents a value between 250 and 500, C represents a value between 50 and 250, D represents a value between 10 and 50, and E represents a value below 10.

[1] = Solubility Assay in Organic Excipients; conditions: maximum upper limit 20,000 μM; for Solubility in MCT (mg/mL): medium chain triglycerides (MCT)
[2] = system: IL-2 stimulated pSTAT5 in Tall-1 T cells; assay: Inhibition of IL-2 Stimulated pSTAT5 in Tall-1 T Cells; type: cell-based; conditions: Tall-1 human T cell line, IL-2 300 ng/mL, AlphaLisa
Protocol: Assay 2: Inhibition of IL-2 Stimulated pSTAT5 in Tall-1 T Cells
The potency of test compounds for inhibition of interleukin-2 (IL-2) stimulated STATS phosphorylation was measured in the Tall-1 human T cell line (DSMZ) using AlphaLisa. Because IL-2 signals through JAK1/3, this assay provides a measure of JAK1/3 cellular potency.
Phosphorylated STATS was measured via the AlphaLISA SureFire Ultra pSTAT5 (Tyr694/699) kit (PerkinElmer). Human T cells from the Tall-1 cell line were cultured in a 37° C., 5% CO2 humidified incubator in RPMI (Life Technologies) supplemented with 15% Heat Inactivated Fetal Bovine Serum (FBS, Life Technologies), 2 mM Glutamax (Life Technologies), 25 mM HEPES (Life Technologies) and 1× Pen/Strep (Life Technologies). Compounds were serially diluted in DMSO and dispensed acoustically to empty wells. Assay media (phenol red-free DMEM (Life Technologies) supplemented with 10% FBS (ATCC)) was dispensed (4 μL/well) and plates shaken at 900 rpm for 10 mins. Cells were seeded at 45,000 cells/well in assay media (4 μL/well), and incubated at 37° C., 5% CO2 for 1 hour, followed by the addition of IL-2 (R&D Systems; final concentration 300 ng/mL) in pre-warmed assay media (4 μL) for 30 minutes. After cytokine stimulation, cells were lysed with 6 ul of 3× AlphaLisa Lysis Buffer (PerkinElmer) containing 1× PhosStop and Complete tablets (Roche). The lysate was shaken at 900 rpm for 10 minutes at room temperature (RT). Phosphorylated STATS was measured via the pSTAT5 AlphaLisa kit (PerkinElmer). Freshly prepared acceptor bead mixture was dispensed onto lysate (51) under green filtered <100 lux light. Plates were shaken at 900 rpm for 2 mins, briefly spun down, and incubated for 2 hrs at RT in the dark. Donor beads were dispensed (5 μL) under green filtered <100 lux light. Plates were shaken at 900 rpm for 2 minutes, briefly spun down, and incubated overnight at RT in the dark. Luminescence was measured with excitation at 689 nm and emission at 570 nm using an EnVision plate r reader (PerkinElmer) under green filtered <100 lux light.
To determine the inhibitory potency of test compounds in response to IL-2, the average emission intensity of beads bound to pSTAT5 was measured in a human T cell line. IC50 values were determined from analysis of the inhibition curves of signal intensity versus compound concentration. Data are expressed as pIC50 (negative decadic logarithm IC50) values (mean±standard deviation).

Chain of JAK1 (P23458 whole entry): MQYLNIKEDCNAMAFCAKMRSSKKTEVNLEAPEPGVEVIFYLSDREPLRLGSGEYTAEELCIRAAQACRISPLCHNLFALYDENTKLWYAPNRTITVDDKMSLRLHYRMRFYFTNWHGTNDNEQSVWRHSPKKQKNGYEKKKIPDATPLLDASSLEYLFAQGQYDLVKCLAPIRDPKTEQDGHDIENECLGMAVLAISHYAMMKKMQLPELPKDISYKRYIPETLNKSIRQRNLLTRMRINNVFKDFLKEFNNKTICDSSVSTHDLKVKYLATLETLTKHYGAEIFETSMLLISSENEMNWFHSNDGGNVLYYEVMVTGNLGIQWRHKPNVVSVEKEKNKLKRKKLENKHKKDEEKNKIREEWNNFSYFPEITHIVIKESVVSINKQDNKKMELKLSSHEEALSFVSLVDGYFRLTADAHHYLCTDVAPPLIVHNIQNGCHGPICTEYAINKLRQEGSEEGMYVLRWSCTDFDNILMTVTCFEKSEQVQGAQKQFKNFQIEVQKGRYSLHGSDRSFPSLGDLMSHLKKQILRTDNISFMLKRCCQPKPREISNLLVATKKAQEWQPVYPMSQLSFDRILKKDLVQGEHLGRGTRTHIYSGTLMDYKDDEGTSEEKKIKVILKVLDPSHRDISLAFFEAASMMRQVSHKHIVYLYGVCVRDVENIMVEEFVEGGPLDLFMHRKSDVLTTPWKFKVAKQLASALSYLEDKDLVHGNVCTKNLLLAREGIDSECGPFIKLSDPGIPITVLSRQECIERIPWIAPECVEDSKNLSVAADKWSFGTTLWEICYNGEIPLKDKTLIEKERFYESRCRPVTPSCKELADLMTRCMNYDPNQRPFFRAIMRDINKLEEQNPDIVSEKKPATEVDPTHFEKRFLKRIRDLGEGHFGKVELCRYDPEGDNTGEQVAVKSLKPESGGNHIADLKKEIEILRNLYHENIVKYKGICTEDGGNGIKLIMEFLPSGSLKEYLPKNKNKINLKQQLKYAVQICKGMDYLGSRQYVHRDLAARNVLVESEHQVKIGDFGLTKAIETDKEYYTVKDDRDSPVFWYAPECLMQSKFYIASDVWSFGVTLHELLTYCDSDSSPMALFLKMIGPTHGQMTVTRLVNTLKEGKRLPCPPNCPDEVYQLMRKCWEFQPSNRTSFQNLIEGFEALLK

Row | SMILES | JAK 1 (pKi) (JAK1) | JAK 3 (pKi) (JAK3) | Solubility at PH 7.4 (μmol) (Aqueous Solubility Assay) | Solubility in PEG400 (mg/mL) [1] | Solubility in Diisopropyl adipate (mg/mL) [1] | Solubility in MCT (mg/mL) [1] | Solubility in Propylene glycol (mg/mL) [1] | Tall-1 IL2 pSTAT5 (pIC50) [2]
1 | Cc1cc(Nc2cc(C3CCOCC3)nc(N(C)[C@@H]3C[C@H]4CCC[C@@H](C3)N4C(=O)CC3CC3)n2)n[nH]1 [Compound 4, 2-cyclopropyl-1-((1R,3s,5S)-3-(methyl(4-((5-methyl-1H-pyrazol-3-yl)amino)-6-(tetrahydro-2H-pyran-4-yl)pyrimidin-2-yl)amino)-9-azabicyclo[3.3.1]nonan-9-yl)ethan-1-one] | A (A represents a pKi value ≥10 (Ki≤0.1 nM)) | B (B represents a pKi value between 9 and 10 (Ki between 1 nM and 0.1 nM)) | E (E represents a value below 10) | C (C represents a value below 5) | C (C represents a value below 5) | C (C represents a value below 5) | C (C represents a value below 5) | 
2 | Cc1cc(Nc2cc(C3CCOC3)nc(N(C)[C@@H]3C[C@H]4CCC[C@@H](C3)N4C(=O)CC3CC3)n2)n[nH]1 (stereo partly drawn) [Compound 7, 2-cyclopropyl-1-((1R,3s,5S)-3-(methyl(4-((5-methyl-1H-pyrazol-3-yl)amino)-6-(tetrahydrofuran-3-yl)pyrimidin-2-yl)amino)-9-azabicyclo[3.3.1]nonan-9-yl)ethan-1-one] | A (A represents a pKi value ≥10 (Ki≤0.1 nM)) | C (C represents a pKi value between 8 and 9 (Ki between 10 nM and 1 nM)) | E (E represents a value below 10) |  |  |  |  | A (A represents a pIC50 value ≥8.0)
3 | Cc1cc(Nc2cc(C3CCCO3)nc(N(C)[C@@H]3C[C@H]4CCC[C@@H](C3)N4CC(=O)N3CCCC3)n2)n[nH]1 (stereo partly drawn) [Compound 16, 2-((1R,3s,5S)-3-(methyl(4-((5-methyl-1H-pyrazol-3-yl)amino)-6-(tetrahydrofuran-2-yl)pyrimidin-2-yl)amino)-9-azabicyclo[3.3.1]nonan-9-yl)-1-(pyrrolidin-1-yl)ethan-1-one] | A (A represents a pKi value ≥10 (Ki≤0.1 nM)) | C (C represents a pKi value between 8 and 9 (Ki between 10 nM and 1 nM)) | A (A represents a value above 500) | C (C represents a value below 5) | C (C represents a value below 5) | C (C represents a value below 5) | C (C represents a value below 5) | 
4 | CCS(=O)(=O)N1[C@@H]2CCC[C@H]1C[C@H](N(C)c1nc(Nc3cc(C)[nH]n3)cc(O[C@@H]3CCOC3)n1)C2 [Compound 18, N^2-((1R,3s,5S)-9-(ethylsulfonyl)-9-azabicyclo[3.3.1]nonan-3-yl)-N2-methyl-N4-(5-methyl-1H-pyrazol-3-yl)-6-(((R)-tetrahydrofuran-3-yl)oxy)pyrimidine-2,4-diamine] | A (A represents a pKi value ≥10 (Ki≤0.1 nM)) | B (B represents a pKi value between 9 and 10 (Ki between 1 nM and 0.1 nM)) | D (D represents a value between 10 and 50) | B (B represents a value between 5 and 10) | B (B represents a value between 5 and 10) | C (C represents a value below 5) | B (B represents a value between 5 and 10) | 
5 | CCS(=O)(=O)N1[C@@H]2CCC[C@H]1C[C@H](N(C)c1nc(Nc3cc(C)[nH]n3)cc(O[C@H]3CCOC3)n1)C2 [Compound 33, N^2-((1R,3s,5S)-9-(ethylsulfonyl)-9-azabicyclo[3.3.1]nonan-3-yl)-N2-methyl-N4-(5-methyl-1H-pyrazol-3-yl)-6-(((S)-tetrahydrofuran-3-yl)oxy)pyrimidine-2,4-diamine] | A (A represents a pKi value ≥10 (Ki≤0.1 nM)) | B (B represents a pKi value between 9 and 10 (Ki between 1 nM and 0.1 nM)) | D (D represents a value between 10 and 50) | B (B represents a value between 5 and 10) | C (C represents a value below 5) | C (C represents a value below 5) | A (A represents a value above 10) | 
6 | Cc1cc(Nc2cc(OCC3COC3)nc(N(C)[C@@H]3C[C@H]4CCC[C@@H](C3)N4C(=O)CC3CC3)n2)n[nH]1 [Compound 40, 2-cyclopropyl-1-((1R,3s,5S)-3-(methyl(4-((5-methyl-1H-pyrazol-3-yl)amino)-6-(oxetan-3-ylmethoxy)pyrimidin-2-yl)amino)-9-azabicyclo[3.3.1]nonan-9-yl)ethan-1-one] | A (A represents a pKi value ≥10 (Ki≤0.1 nM)) | B (B represents a pKi value between 9 and 10 (Ki between 1 nM and 0.1 nM)) | D (D represents a value between 10 and 50) |  |  |  |  | A (A represents a pIC50 value ≥8.0)
7 | CCS(=O)(=O)N1[C@@H]2CCC[C@H]1C[C@H](N(C)c1nc(Nc3cc(C)[nH]n3)c(F)c(C3CCOC3)n1)C2 (stereo partly drawn) [Compound 44, N2-((1R,3s,5S)-9-(ethylsulfonyl)-9-azabicyclo[3.3.1]nonan-3-yl)-5-fluoro-N2-methyl-N4-(5-methyl-1H-pyrazol-3-yl)-6-(tetrahydrofuran-3-yl)pyrimidine-2,4-diamine] | A (A represents a pKi value ≥10 (Ki≤0.1 nM)) | C (C represents a pKi value between 8 and 9 (Ki between 10 nM and 1 nM)) | E (E represents a value below 10) |  |  |  |  | 
8 | CCC(=O)N1[C@@H]2CCC[C@H]1CC(N(C)c1nc(Nc3cc(C)[nH]n3)cc(OC3CCOC3)n1)C2 (stereo partly drawn) [Compound 46, 1-((1R,3s,5S)-3-(methyl(4-((5-methyl-1H-pyrazol-3-yl)amino)-6-((tetrahydrofuran-3-yl)oxy)pyrimidin-2-yl)amino)-9-azabicyclo[3.3.1]nonan-9-yl)propan-1-one] | A (A represents a pKi value ≥10 (Ki≤0.1 nM)) | B (B represents a pKi value between 9 and 10 (Ki between 1 nM and 0.1 nM)) | D (D represents a value between 10 and 50) |  |  |  |  | A (A represents a pIC50 value ≥8.0)
